From US7728037B2, “Alpha-ketoglutarates of active ingredients and compositions containing same” (Sigma-Tau Industrie Farmaceutiche Riunite S.p.A., priority 2001, dated 2010)

Test system: rabbit heart papillary muscle subjected to hypoxia
Experiment: Metabolic tests: ATP concentrations in rabbit heart papillary muscle subjected to hypoxia after oral treatment
Format: in vivo
Conditions: 1 g/kg by mouth or equimolecular doses, three consecutive days; tissue held anoxic for 90 minutes; untreated controls 1.70±0.68 to 0.46±0.071
Text: After three consecutive days of treatment, sections of papillary muscle were isolated from the rabbit hearts and were perfused in a thermostatized bath with a saturated solution of 100% O2.

With L-carnitine alpha-ketoglutarate the ATP concentrations in papillary muscle after hypoxia was 1.48 ± 0.72 µmol/g tissue.
Compound `C[N+](C)(C)C[C@H](O)CC(=O)[O-]` [L-carnitine] has an ATP concentrations in papillary muscle after hypoxia of 0.59 ± 0.31 µmol/g tissue.
